Assay results: ChEMBL document CHEMBL3885861, “Open TG-GATES”

Organism: Rattus norvegicus
Test: Open TG-GATES - Regimen: Daily Repeat
Type: toxicity, organism-based, Sprague-Dawley
Parameters: regimen Daily Repeat, gender Male, age 6 weeks
Settings: in vivo, po, 150 mg/kg, route gavage, dose level High; for APTT / Bas / Eos / Fbg / Hb / Ht / Lym / MCH / MCHC / MCV / Mono / Neu / PT / Plat / RBC / Ret / WBC: tissue Blood; for KIDNEY_L / KIDNEY_R / KIDNEY_TOTAL: tissue Kidney; for LIVER: tissue Liver; for A/G / ALP / ALT / AST / BUN / CRE / Ca / Cl / DBIL / GLC / IP / K / LDH / Na / PL / RALB / TBIL / TC / TG / TP / gamma-GTP: tissue Plasma

Nc1nc(N)c2nc(-c3ccccc3)c(N)nc2n1
TERMINAL_BW (72 h, time 3 day): 243.7 g
APTT (72 h, time 3 day): 16.1 s
Bas (72 h, time 3 day): 0%
Eos (72 h, time 3 day): 1%
Fbg (72 h, time 3 day): 366.6 mg/dL
Hb (72 h, time 3 day): 13.8 g/dL
Ht (72 h, time 3 day): 40.7%
Lym (72 h, time 3 day): 76.6%
MCH (72 h, time 3 day): 21 pg
MCHC (72 h, time 3 day): 33.8%
MCV (72 h, time 3 day): 62 fL
Mono (72 h, time 3 day): 2.8%
Neu (72 h, time 3 day): 18.8%
PT (72 h, time 3 day): 14 s
Plat (72 h, time 3 day): 131.8 x10_4/uL
RBC (72 h, time 3 day): 657.6 x10_4/ul
Ret (72 h, time 3 day): 5.1%
WBC (72 h, time 3 day): 90.9 x10_2/uL
KIDNEY_L (72 h, time 3 day): 1 g
KIDNEY_R (72 h, time 3 day): 1.1 g
KIDNEY_TOTAL (72 h, time 3 day): 2.1 g
LIVER (72 h, time 3 day): 11.3 g
A/G (72 h, time 3 day): 0.9
ALP (72 h, time 3 day): 1846.8 IU/L
ALT (72 h, time 3 day): 44 IU/L
AST (72 h, time 3 day): 67.2 IU/L
BUN (72 h, time 3 day): 17.6 mg/dL
CRE (72 h, time 3 day): 0.2 mg/dL
Ca (72 h, time 3 day): 11.1 mg/dL
Cl (72 h, time 3 day): 105.8 meq/L
DBIL (72 h, time 3 day): 0.008 mg/dL
GLC (72 h, time 3 day): 180.6 mg/dL
IP (72 h, time 3 day): 7.9 mg/dL
K (72 h, time 3 day): 3.9 meq/L
LDH (72 h, time 3 day): 59 IU/L
Na (72 h, time 3 day): 143.6 meq/L
PL (72 h, time 3 day): 171 mg/dL
RALB (72 h, time 3 day): 2.6 g/dL
TBIL (72 h, time 3 day): 0.032 mg/dL
TC (72 h, time 3 day): 90.6 mg/dL
TG (72 h, time 3 day): 120.8 mg/dL
TP (72 h, time 3 day): 5.6 g/dL
gamma-GTP (72 h, time 3 day): 1 IU/L
TERMINAL_BW ([…], time 7 day): 274.8 g
TERMINAL_BW ([…], time 14 day): 323.6 g
TERMINAL_BW ([…], time 28 day): 378.7 g
APTT ([…], time 7 day): 16.4 s
Bas ([…], time 7 day): 0.2%
Eos ([…], time 7 day): 1%
Fbg ([…], time 7 day): 354.2 mg/dL
Hb ([…], time 7 day): 13.5 g/dL
Ht ([…], time 7 day): 41.1%
Lym ([…], time 7 day): 78.2%
MCH ([…], time 7 day): 20.1 pg
MCHC ([…], time 7 day): 32.8%
MCV ([…], time 7 day): 61.2 fL
Mono ([…], time 7 day): 2.4%
Neu ([…], time 7 day): 18.2%
PT ([…], time 7 day): 14.1 s
Plat ([…], time 7 day): 132.7 x10_4/uL
RBC ([…], time 7 day): 672.4 x10_4/ul
Ret ([…], time 7 day): 5.4%
WBC ([…], time 7 day): 114.8 x10_2/uL
APTT ([…], time 14 day): 20.2 s
Bas ([…], time 14 day): 0%
Eos ([…], time 14 day): 1%
Fbg ([…], time 14 day): 329.6 mg/dL
Hb ([…], time 14 day): 14.2 g/dL
Ht ([…], time 14 day): 43.2%
Lym ([…], time 14 day): 77.4%
MCH ([…], time 14 day): 19.5 pg
MCHC ([…], time 14 day): 33%
MCV ([…], time 14 day): 59.1 fL
Mono ([…], time 14 day): 2.2%
Neu ([…], time 14 day): 18.8%
PT ([…], time 14 day): 13 s
Plat ([…], time 14 day): 113.5 x10_4/uL
RBC ([…], time 14 day): 730.6 x10_4/ul
Ret ([…], time 14 day): 3.3%
WBC ([…], time 14 day): 94.3 x10_2/uL
APTT ([…], time 28 day): 18.6 s
Bas ([…], time 28 day): 0.4%
Eos ([…], time 28 day): 1%
Fbg ([…], time 28 day): 320 mg/dL
Hb ([…], time 28 day): 15 g/dL
Ht ([…], time 28 day): 44.1%
Lym ([…], time 28 day): 78.8%
MCH ([…], time 28 day): 18.6 pg
MCHC ([…], time 28 day): 33.9%
MCV ([…], time 28 day): 54.9 fL
Mono ([…], time 28 day): 2.2%
Neu ([…], time 28 day): 16.8%
PT ([…], time 28 day): 13.3 s
Plat ([…], time 28 day): 127.8 x10_4/uL
RBC ([…], time 28 day): 803.2 x10_4/ul
Ret ([…], time 28 day): 2.1%
WBC ([…], time 28 day): 110.6 x10_2/uL
KIDNEY_L ([…], time 7 day): 1.3 g
KIDNEY_R ([…], time 7 day): 1.3 g
KIDNEY_TOTAL ([…], time 7 day): 2.6 g
KIDNEY_L ([…], time 14 day): 1.4 g
KIDNEY_R ([…], time 14 day): 1.4 g
KIDNEY_TOTAL ([…], time 14 day): 2.8 g
KIDNEY_L ([…], time 28 day): 1.7 g
KIDNEY_R ([…], time 28 day): 1.7 g
KIDNEY_TOTAL ([…], time 28 day): 3.4 g
LIVER ([…], time 7 day): 12.6 g
LIVER ([…], time 14 day): 13.2 g
LIVER ([…], time 28 day): 14.1 g
A/G ([…], time 7 day): 0.9
ALP ([…], time 7 day): 1286 IU/L
ALT ([…], time 7 day): 41.2 IU/L
AST ([…], time 7 day): 63.2 IU/L
BUN ([…], time 7 day): 18.8 mg/dL
CRE ([…], time 7 day): 0.2 mg/dL
Ca ([…], time 7 day): 11 mg/dL
Cl ([…], time 7 day): 104.2 meq/L
DBIL ([…], time 7 day): 0.014 mg/dL
GLC ([…], time 7 day): 188 mg/dL
IP ([…], time 7 day): 7.7 mg/dL
K ([…], time 7 day): 4 meq/L
LDH ([…], time 7 day): 62 IU/L
Na ([…], time 7 day): 143 meq/L
PL ([…], time 7 day): 149.6 mg/dL
RALB ([…], time 7 day): 2.6 g/dL
TBIL ([…], time 7 day): 0.072 mg/dL
TC ([…], time 7 day): 77 mg/dL
TG ([…], time 7 day): 126.8 mg/dL
TP ([…], time 7 day): 5.6 g/dL
gamma-GTP ([…], time 7 day): 1.2 IU/L
A/G ([…], time 14 day): 0.8
ALP ([…], time 14 day): 1273.4 IU/L
ALT ([…], time 14 day): 41.6 IU/L
AST ([…], time 14 day): 66.4 IU/L
BUN ([…], time 14 day): 21.4 mg/dL
CRE ([…], time 14 day): 0.3 mg/dL
Ca ([…], time 14 day): 10.4 mg/dL
Cl ([…], time 14 day): 105.8 meq/L
DBIL ([…], time 14 day): 0.012 mg/dL
GLC ([…], time 14 day): 185.2 mg/dL
IP ([…], time 14 day): 7.5 mg/dL
K ([…], time 14 day): 3.7 meq/L
LDH ([…], time 14 day): 58.2 IU/L
Na ([…], time 14 day): 145 meq/L
PL ([…], time 14 day): 143.2 mg/dL
RALB ([…], time 14 day): 2.7 g/dL
TBIL ([…], time 14 day): 0.07 mg/dL
TC ([…], time 14 day): 75 mg/dL
TG ([…], time 14 day): 101.6 mg/dL
TP ([…], time 14 day): 5.9 g/dL
gamma-GTP ([…], time 14 day): 1.2 IU/L
A/G ([…], time 28 day): 0.8
ALP ([…], time 28 day): 1120 IU/L
ALT ([…], time 28 day): 41.8 IU/L
AST ([…], time 28 day): 65.6 IU/L
BUN ([…], time 28 day): 21.4 mg/dL
CRE ([…], time 28 day): 0.3 mg/dL
Ca ([…], time 28 day): 10.7 mg/dL
Cl ([…], time 28 day): 106 meq/L
DBIL ([…], time 28 day): 0.008 mg/dL
GLC ([…], time 28 day): 178.2 mg/dL
IP ([…], time 28 day): 6.7 mg/dL
K ([…], time 28 day): 3.7 meq/L
LDH ([…], time 28 day): 44.6 IU/L
Na ([…], time 28 day): 144.8 meq/L
PL ([…], time 28 day): 160.4 mg/dL
RALB ([…], time 28 day): 2.7 g/dL
TBIL ([…], time 28 day): 0.064 mg/dL
TC ([…], time 28 day): 85.2 mg/dL
TG ([…], time 28 day): 106.2 mg/dL
TP ([…], time 28 day): 6.1 g/dL
gamma-GTP ([…], time 28 day): 1.4 IU/L
